{"source": "paper PMC9981719", "about": "“A novel designed membrane-active peptide for the control of foodborne Salmonella enterica serovar Typhimurium” (Scientific Reports, 2023)", "key": {"S. Typhimurium H1-001": {"test_system": "S. Typhimurium H1-001", "format": "cell-based, Salmonella enterica serovar Typhimurium", "details": "strain H1-001", "description": "(§1) All tests were done in triplicate."}, "S. Typhimurium H1-011": {"test_system": "S. Typhimurium H1-011", "format": "cell-based, Salmonella enterica serovar Typhimurium", "details": "strain H1-011", "description": "as §1"}, "S. Typhimurium H1-015": {"test_system": "S. Typhimurium H1-015", "format": "cell-based, Salmonella enterica serovar Typhimurium", "details": "strain H1-015", "description": "as §1"}, "[1]": {"test_system": "Salmonella Typhimurium ATCC 13311", "format": "cell-based, Salmonella enterica serovar Typhimurium", "details": "ATCC 13311, 18 h", "description": "as §1"}, "[2]": {"test_system": "human red blood cells (hRBCs)", "test": "Hemolysis assay", "format": "cell-based", "protocol": "The toxicity of all peptide derivatives toward human red blood cells (hRBCs) was investigated by evaluating the amount of hemoglobin released after exposure to peptide. Briefly, hRBCs (blood group O) were collected from a healthy adult volunteer into a heparin-coated polycarbonate tube. The sample was centrifuged for 5 min at 1000g to separate erythrocytes from buffy coat and plasma. The erythrocytes were washed at least three times with 1 × PBS and centrifuged for 5 min at 1000g or until supernatant was clear. The sample was resuspended in PBS to obtain 2% (v/v) hRBCs. To determine hRBC lysis, hRBC suspensions were incubated with equal volumes of various concentrations of peptide (0.98–250 µg/ml) for 1 h at 37 °C. Intact hRBCs were centrifuged for 5 min at 1000g, supernatants were transferred into new 96-well plates, and absorbance was measured at OD 405 nm. Untreated hRBCs (in PBS only) served as negative control (ODNegative) and hRBCs treated with 0.1% Triton X-100 as positive control (ODTritonX-100). Absorbance of samples was converted to percentage hemolysis according to the equation: Hemolysis%=ODSample-ODNegative/ODTriton X-100-ODNegative×100"}, "4,5,12:i:- H2-039": {"test_system": "4,5,12:i:- H2-039", "format": "cell-based, Salmonella enterica 4,5,12:i:-", "details": "strain H2-039", "description": "as §1"}, "4,5,12:i:- H2-042": {"test_system": "4,5,12:i:- H2-042", "format": "cell-based, Salmonella enterica 4,5,12:i:-", "details": "strain H2-042", "description": "as §1"}, "4,5,12:i:- H2-067": {"test_system": "4,5,12:i:- H2-067", "format": "cell-based, Salmonella enterica 4,5,12:i:-", "details": "strain H2-067", "description": "as §1"}, "4,5,12:i:- H2-071": {"test_system": "4,5,12:i:- H2-071", "format": "cell-based, Salmonella enterica 4,5,12:i:-", "details": "strain H2-071", "description": "as §1"}, "S. Typhimurium ATCC13311": {"test_system": "S. Typhimurium ATCC13311", "format": "cell-based, Salmonella enterica serovar Typhimurium", "details": "at MIC and 2 × MIC", "protocol": "Bacterial killing kinetics of A11 were investigated against S. Typhimurium as described previously. S. Typhimurium ATCC13311 was grown in TSB at 37 °C until reaching the exponential phase. […] The mixture was sampled at 1, 2, 4, 6, 8, 12 and 24 h, and subsequently tenfold serially diluted in 1 × PBS and plated in triplicate on Mueller–Hinton agar (MHA). After incubation at 37 °C for 24 h, the colonies were counted and CFU/ml was calculated. The tests were done in three independent experiments."}, "[3]": {"test_system": "S. Typhimurium ATCC 13311", "test": "Effect of pH on MIC", "format": "cell-based, Salmonella enterica serovar Typhimurium", "protocol": "The pH of peptide solutions was adjusted (pH 3, 5, 7, 9 and 11) using 1 M acetic acid (CH3COOH) and 1 M sodium hydroxide (NaOH). Solutions adjusted to the different pHs without addition of A11 were used as controls. Subsequently, twofold serially diluted solutions (0.98–250 μg/ml) of A11 peptide were prepared with different pHs of peptide solution and incubated at 37 °C for 60 min, transferred to 1 × 10^7 CFU/ml of S. Typhimurium ATCC 13311 suspensions, then incubated at 37 °C with continuous shaking. After 24 h, MIC values were determined."}, "[4]": {"test_system": "S. Typhimurium ATCC 13311", "test": "Effect of temperature on MIC", "format": "cell-based, Salmonella enterica serovar Typhimurium", "protocol": "Two-fold serial dilutions (0.98–250 μg/ml) of A11 peptide were prepared and pre-incubated for 60 min at one of various temperatures (40 °C, 60 °C, 80 °C and 100 °C), and then cooled to 4 °C. After 30 min, 50 μl of heated peptide solutions were cultured with 50 μl of S. Typhimurium ATCC 13311 suspensions (approximately 1 × 10^7 CFU/ml). After 24 h incubation at 37 °C, MICs were determined; all experiments were done in triplicate."}}, "note": "Where no end group is shown, it is not given here."}
{"substance": "WVKKVARKVVKIGRKVAR-NH2 [A11]", "values": [{"measurement": "MBC", "setting": "S. Typhimurium H1-001", "value": 125, "unit": "µg/mL"}, {"measurement": "MIC", "setting": "S. Typhimurium H1-001", "value": 62.5, "unit": "µg/mL"}, {"measurement": "MBC", "setting": "S. Typhimurium H1-011", "value": "62.5 (62.5) µg/ml"}, {"measurement": "MIC", "setting": "S. Typhimurium H1-011", "value": "62.5 (62.5) µg/ml"}, {"measurement": "MBC", "setting": "S. Typhimurium H1-015", "value": "62.5 (62.5) µg/ml"}, {"measurement": "MIC", "setting": "S. Typhimurium H1-015", "value": "62.5 (62.5) µg/ml"}, {"measurement": "MIC, Control", "setting": "[1]", "value": 15.63, "unit": "µg/mL"}, {"measurement": "hemolytic activity at the MIC concentration", "setting": "[2]", "value": "less than 2%"}, {"measurement": "MBC", "setting": "4,5,12:i:- H2-039", "value": 125, "unit": "µg/mL"}, {"measurement": "MIC", "setting": "4,5,12:i:- H2-039", "value": 62.5, "unit": "µg/mL"}, {"measurement": "MBC", "setting": "4,5,12:i:- H2-042", "value": 125, "unit": "µg/mL"}, {"measurement": "MIC", "setting": "4,5,12:i:- H2-042", "value": 62.5, "unit": "µg/mL"}, {"measurement": "MBC", "setting": "4,5,12:i:- H2-067", "value": "62.5 (62.5) µg/ml"}, {"measurement": "MIC", "setting": "4,5,12:i:- H2-067", "value": "62.5 (62.5) µg/ml"}, {"measurement": "MBC", "setting": "4,5,12:i:- H2-071", "value": "125 (125) µg/ml"}, {"measurement": "MIC", "setting": "4,5,12:i:- H2-071", "value": "125 (125) µg/ml"}, {"measurement": "killing of S. Typhimurium within 6 h", "setting": "S. Typhimurium ATCC13311", "value": "more than 99%"}, {"measurement": "MIC at pH 3", "setting": "[3]; peptide solution adjusted to pH 3, incubated 37 °C 60 min, then 24 h with 1 × 10^7 CFU/ml", "value": 125, "unit": "µg/ml"}, {"measurement": "MIC at pH 5", "setting": "[3]; peptide solution adjusted to pH 5, incubated 37 °C 60 min, then 24 h with bacteria", "value": 31.25, "unit": "µg/ml"}, {"measurement": "MIC at pH 7", "setting": "[3]; peptide solution adjusted to pH 7, incubated 37 °C 60 min, then 24 h with bacteria", "value": 15.63, "unit": "µg/ml"}, {"measurement": "MIC at pH 9", "setting": "[3]; peptide solution adjusted to pH 9, incubated 37 °C 60 min, then 24 h with bacteria", "value": 15.63, "unit": "µg/ml"}, {"measurement": "MIC at pH 11", "setting": "[3]; peptide solution adjusted to pH 11, incubated 37 °C 60 min, then 24 h with bacteria", "value": 31.25, "unit": "µg/ml"}, {"measurement": "MIC after 40 °C", "setting": "[4]; peptide pre-incubated 60 min at 40 °C, cooled to 4 °C, then 24 h at 37 °C with bacteria, triplicate", "value": 15.63, "unit": "µg/mL"}, {"measurement": "MIC after 60 °C", "setting": "[4]; peptide pre-incubated 60 min at 60 °C, cooled to 4 °C, then 24 h at 37 °C with bacteria, triplicate", "value": 15.63, "unit": "µg/mL"}, {"measurement": "MIC after 80 °C", "setting": "[4]; peptide pre-incubated 60 min at 80 °C, cooled to 4 °C, then 24 h at 37 °C with bacteria, triplicate", "value": 15.63, "unit": "µg/mL"}, {"measurement": "MIC after 100 °C", "setting": "[4]; peptide pre-incubated 60 min at 100 °C, cooled to 4 °C, then 24 h at 37 °C with bacteria, triplicate", "value": 15.63, "unit": "µg/mL"}, {"measurement": "MIC after heat treatment, same value at each temperature", "setting": "[4]; various temperatures from 40 to 100 °C for 1 h", "value": 15.63, "unit": "µg/mL"}]}
